The assay has as its system MM1.S multiple myeloma tumors. Description: Disseminated MM1.S-Luc multiple myeloma model, bioluminescence. The class given is in vivo, mice. The following applies: 300 μg/kg QD orally. On the procedure: Compound 1 was administered at 300 μg/kg QD (every day) orally to female NOD SCID mice with disseminated MM1.S multiple myeloma tumors with a measurable MM1.S tumor burden on day 0 and dosed PO daily for 3 weeks. […] Data are expressed as mean BLI±SEM.
A xenograft study was conducted. Female SCID animals were irradiated with a 200 rads Co60 irradiator source and after 24 hours, animals were inoculated via tail vein injection with 1×107 MM1.S-Luc in 200 μL PBS. Tumor burden was measured twice weekly using imaging analysis. Mice were injected intraperitoneally with 15 mg/mL of D-luciferin and anesthetized with 1-2% isoflurane inhalation. 10 minutes post luciferin injection, mice were imaged using IVIS Lumina II (Perkin Elmer) and total bioluminescence signal (BLI, photons/s) was measured in a region of interest (ROI). BLI from ROI were quantified and used as an indicator of tumor burden. 29 days post tumor cell inoculation mice were randomized into two groups, with 3 mice per group and an average BLI of 17×10^6 photons. FIG. 6 are images of the mice administered Compound 1 compared to the mice administered vehicle. Images were taken on days 4, 7, 11, 14, and 18.

In the case of `O=C1CC[C@H](N2C(=O)c3cccc4c(Cc5ccc(CN6CCOCC6)cc5)ccc2c34)C(=O)N1` (single isomer, unassigned) [Compound 1], the total bioluminescence signal result is reported as “significantly less than the mice administered vehicle”.

The record behind these values is patent US20230190760A1, “ADVANTAGEOUS THERAPIES FOR DISORDERS MEDIATED BY IKAROS OR AIOLOS” (C4 Therapeutics, Inc., priority 2020, published 2023).
